Assay results: patent US12529701B2, “Method for predicting sensitivity of cancer cell to GPX4 inhibitor” (Chugai Seiyaku Kabushiki Kaisha, priority 2019, dated 2026)

Experiments:
[1] = system: cancer cell lines shown in Table 4; assay: Test for inhibition of activity of GPX4 1 (cell growth inhibition under a GPX4 inhibitor); assay type: cell-based, human; conditions: cancer cell having a suppressed function of SMARCA4
Description: In each cancer cell line, cell growth inhibition activity under a GPX4 inhibitor was evaluated. As the GPX4 inhibitor, ML210 (CAS No: 1360705-96-9) which is a low-molecular GPX4 inhibitor reported to be a compound inhibiting the enzymatic activity of GPX4:
These compounds were each added, and each cell line was seeded at 100 μL/well so as to attain the seeding density (2) shown in Table 5 below. The cells were cultured for 7 days, the intracellular ATP which is a marker for cell survival was then measured using Cell Titer-Glo 2.0 Cell Viability Assay (manufactured by Promega Corporation), and the cell survival rate was calculated, where the intracellular ATP level in each cancer cell line given only a solvent (dimethyl sulfoxide (DMSO) or water) for the compound and cultured for 7 days was defined as 100%.

SK-HEP-1 tumor = assay: Test for drug efficacy of ML210 on SK-HEP-1 tumor-bearing mouse; assay type: in vivo, BALB/c-nu/nu mice; conditions: SK-HEP-1 tumor-bearing mice; oral, once a day, 100 mg/kg from day 11; measured days 11, 14 and 18; versus vehicle; FIG. 9
Description: For examining the efficacy of the GPX4 inhibitor on SWI/SNF complex factor-deficient cancer in vivo, a test was conducted in which ML210 was administered to mice in which SK-HEP-1 (human cancer cell line suppressing a function of SMARCA4) was transplanted (SK-HEP-1 tumor-bearing mice). […]
Subsequently, to mice (SK-HEP-1 tumor-bearing mice) for which the engraftment of the tumor (cancer cell) had been confirmed, a dosing liquid obtained by suspending ML210 at a predetermined concentration in a mixed liquid of 10% dimethyl sulfoxide (manufactured by Wako Company, product code: 043-07216), 10% Cremophor (manufactured by Sigma-Aldrich Co. LLC, product code: C5135), 15% polyethylene glycol 400 (manufactured by Wako Company, product code: 161-09065) and 15% hydroxypropyl-β-cyclodextrin (manufactured by Nihon Shokuhin Kako Co., Ltd., product code: 7585-39-9) was orally administered at a predetermined dose (20 mL/kg) once a day to a daily dosage of 100 mg/kg upon the confirmation of the implantation. The day of inoculation of SK-HEP-1 was defined as day 0, administration of ML210 was started on day 11, and the volume of the tumor was measured on days 11, 14 and 18. The minor diameter and the major diameter of the tumor were measured using an electronic caliper (manufactured by Mitutoyo Corporation, product code: CD-15AX), and the volume of the tumor was calculated by the […].

Cc1onc(C(=O)N2CCN(C(c3ccc(Cl)cc3)c3ccc(Cl)cc3)CC2)c1[N+](=O)[O-] [ML210]
cell death and cell growth suppression [1]: markedly suppress cell growth | volume of the tumor (SK-HEP-1 tumor): an increase in volume of the tumor was suppressed as compared to the group given the vehicle

COC(=O)c1ccc([C@H]2c3[nH]c4ccccc4c3C[C@H](C(=O)OC)N2C(=O)CCl)cc1 [RSL3]
cell death and cell growth suppression [1]: markedly suppress cell growth
